One block for each compound: values may come before it.
Columns and labels:
MCF-7 cells = assay: CCK-8 cell viability assay, MCF-7; type: cell-based; settings: Homo sapiens, MCF7, 72 h, mean (n = 3)
Experimental: (§1) MCF-7 and HCT-116 cells were purchased from the Meilunbio Biotechnology Co., Ltd. (Dalian, China). Cells were cultured at 37 °C with 5% CO2, using DMEM or RPMI 1640 medium (Meilunbio, Dalian, China) with 10% (v/v) fetal bovine serum (Gibco, San Diego, CA, USA) and 1% (v/v) penicillin and streptomycin (Meilunbio, Dalian, China). CCK-8 assay was used to determine the inhibitory effect in vitro. In short, cells were incubated into 96-well plates at the rate of 5000 cells per well. After 24 h of incubation, 100 μL medium was added, which contained a specific concentration of the test compound. After 72 h, 10 μL CCK-8 regent was added and the plate was incubated at 37 °C, 5% CO2 for 1 h. The optical density of each hole at 450 nm was read by a BioTek TS-800 microplate reader. GraphPad Prism 9.3.1 software was used to calculate the IC50 value.

mTOR = target: T1, mTOR (Homo sapiens, UniProt P42345); assay: LANCE Ultra assay, mTOR inhibition; type: biochemical; settings: mean (n = 2)
T1 construct: purchased Millipore 14-770
Experimental: The inhibitory activity of 22c on mTOR was determined by LANCE Ultra assay. In short, to a solution of kinase buffer, compound solution, ULight-4E-BP1 (Thr37/46) peptide substrate (PE, Catalog No. TRF0128-M), ATP, and mTOR protein (Millipore, Burlington, MA, USA, Catalog No. 14-770) were added. It was transferred to a 384-well plate and incubated at room temperature for 30 min. The LANCE detection buffer was added, which contained EDTA and Eu-antiphos-4E-BP1 (Thr37/46) antibody (PE, catalog number TRF0216-M). The plate was balanced at ambient temperature for 1 h, and the signal was detected via PerkinElmer Envision plate reader.

PI3K = tested on: PI3K; set-up: method as in PMID 21388141; settings: read-out: enzyme inhibition; cited from earlier work
HCT-116 cells [1] = assay: CCK-8 cell viability assay, HCT-116; type: cell-based; settings: Homo sapiens, mean (n = 3)
Experimental: as §1

PI3Kγ = target: PI3Kγ; set-up: method as in PMID 30582807; settings: cited from earlier work
PI3Kα = target: T2, PI3Kα (Homo sapiens, UniProt P42336); assay: ADP-Glo kinase assay, PI3Kα enzyme inhibition; type: biochemical; settings: for inhibition at 0.001 µM: at 1 nM; for IC50: mean (n = 2)
T2 construct: purchased SignalChem P27-122DH
Experimental: The enzymatic inhibitory assays of all target compounds against PI3Kα were performed with the ADP-Glo assay (Promega, Madison, WI, USA, catalog No. V9102/3). Briefly, compounds were continuously diluted to a certain concentration. […] The mixture was added to a 96-well plate and incubated in a dark place at ambient temperature for 40 min. Then, the kinase reaction was stopped by adding of ADP-Glo reagent and the plate was incubated again at ambient temperature for another 40 min. The kinase detection reagent was added and the signal was collected via PerkinElmer Envision plate reader (PE, Boston, MA, USA).

HCT-116 cells [2] = assay: Hoechst 33342/PI staining of survival and apoptosis; type: cell-based; settings: 24 h
Experimental: (§2) Hoechst 33342/PI staining was used to detect cell survival and apoptosis, and flow cytometry (FACS Verse, BD, Piscataway, NJ, USA) was used to measure cell cycle and survival. Briefly, HCT-116 cells were seeded in 6-well plates and cultured with 22c at different concentrations for 24 h. As for the Hoechst 33342/PI staining assay, staining buffer with Hoechst 33342/PI was added into each plate and incubated at 4 °C for 30 min. After washing with PBS, the stained cells were observed by fluorescence microscope (IX73, Olympus, Tokyo, Japan). As for detection of cell apoptosis by flow cytometry, cells were stained with Annexin V-FITC/PI. As for cell cycle assay, the cells were fixed with 70% ethanol at 4 °C overnight, and stained with PI/RNase solution for 30 min at 37 °C. All assays were measured by flow cytometry and analyzed by Flowjo 7.6.

HCT-116 cells [3] = assay: Flow cytometry analysis of cell cycle via PI staining; type: cell-based; settings: 24 h, dose-dependent
Experimental: as §2

[4] = tested on: phosphorylation of AKT in HCT-116 cells; assay: Western blot of AKT phosphorylation; type: cell-based; settings: 24 h
Experimental: HCT-116 cells were cultured in 100 mm culture dish to 70~80%, and treated with compound 22c at a specified concentration for 24 h. Then, the cells were scraped off with cell scraper, collected into a precooled 1.5 mL centrifuge tube, and lysed with RIPA buffer (Cwbio, Taizhou, China) containing PMSF (1 mM), NaF (1 mM), Na3VO4 (1 mM). The cells were lysed at 4 °C for 30 min, and the concentration of protein was determined by the BCA assay kit (Meilunbio, Dalian, China). Then the protein samples (40 μg) were used to conduct SDS-PAGE electrophoresis (Electrophoresis equipment: BIO-RAD, Hercules, CA, USA; Prefabricated-gel: ACE, Shanghai, China). After electrophoresis, the protein was transferred to PVDF membranes ([…], Millipore, USA). It was sealed with 5% non-fat milk for 1.5 h, washed with TBST for 4 times, and incubated with primary antibody at 4 °C overnight. Then, membranes were recovered to room temperature, washed with TBST for 4 times and incubated with secondary antibody (Huabio, Hangzhou, China) at room temperature for 1.5 h. After incubating, the membranes were washed with TBST for 4 times, visualized with an Amersham Imager 680 (GE, Windsor, CT, USA) through the enhanced ECL detection kit (Meilunbio, Dalian, China). […]

HCT-116 cells [5] = assay: Flow cytometry analysis of apoptosis via Annexin V-FITC/PI staining; type: cell-based; settings: 24 h
Experimental: as §2

T2 sequence (P42336 whole entry): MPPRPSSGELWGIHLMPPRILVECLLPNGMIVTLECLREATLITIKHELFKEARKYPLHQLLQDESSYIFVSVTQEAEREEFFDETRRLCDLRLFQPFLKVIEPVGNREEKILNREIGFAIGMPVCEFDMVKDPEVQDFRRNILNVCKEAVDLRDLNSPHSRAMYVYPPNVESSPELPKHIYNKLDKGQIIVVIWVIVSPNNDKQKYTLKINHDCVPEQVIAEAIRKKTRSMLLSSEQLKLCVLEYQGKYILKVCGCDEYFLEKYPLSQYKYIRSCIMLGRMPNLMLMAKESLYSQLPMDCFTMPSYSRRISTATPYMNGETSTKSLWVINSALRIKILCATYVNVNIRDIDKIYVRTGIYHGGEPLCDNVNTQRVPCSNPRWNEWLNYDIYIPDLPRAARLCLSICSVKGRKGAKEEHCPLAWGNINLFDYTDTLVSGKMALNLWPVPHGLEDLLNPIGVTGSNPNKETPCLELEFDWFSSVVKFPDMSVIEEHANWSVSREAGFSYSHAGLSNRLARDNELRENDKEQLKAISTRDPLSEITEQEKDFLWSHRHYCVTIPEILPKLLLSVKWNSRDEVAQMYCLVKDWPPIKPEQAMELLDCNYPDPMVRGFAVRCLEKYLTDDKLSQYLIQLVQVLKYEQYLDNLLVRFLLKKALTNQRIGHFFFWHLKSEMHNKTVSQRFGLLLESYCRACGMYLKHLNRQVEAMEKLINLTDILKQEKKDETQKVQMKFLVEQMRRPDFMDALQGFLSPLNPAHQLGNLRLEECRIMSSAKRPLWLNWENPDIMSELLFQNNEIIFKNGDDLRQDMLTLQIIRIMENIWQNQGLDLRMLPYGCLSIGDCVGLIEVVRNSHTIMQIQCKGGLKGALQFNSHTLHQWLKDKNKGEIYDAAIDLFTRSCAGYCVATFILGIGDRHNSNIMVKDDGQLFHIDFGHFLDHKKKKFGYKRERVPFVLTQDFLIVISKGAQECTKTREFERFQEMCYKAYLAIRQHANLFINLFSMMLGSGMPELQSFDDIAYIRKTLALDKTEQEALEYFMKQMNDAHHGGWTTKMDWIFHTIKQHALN
T2 sequence (P27986 whole entry partner): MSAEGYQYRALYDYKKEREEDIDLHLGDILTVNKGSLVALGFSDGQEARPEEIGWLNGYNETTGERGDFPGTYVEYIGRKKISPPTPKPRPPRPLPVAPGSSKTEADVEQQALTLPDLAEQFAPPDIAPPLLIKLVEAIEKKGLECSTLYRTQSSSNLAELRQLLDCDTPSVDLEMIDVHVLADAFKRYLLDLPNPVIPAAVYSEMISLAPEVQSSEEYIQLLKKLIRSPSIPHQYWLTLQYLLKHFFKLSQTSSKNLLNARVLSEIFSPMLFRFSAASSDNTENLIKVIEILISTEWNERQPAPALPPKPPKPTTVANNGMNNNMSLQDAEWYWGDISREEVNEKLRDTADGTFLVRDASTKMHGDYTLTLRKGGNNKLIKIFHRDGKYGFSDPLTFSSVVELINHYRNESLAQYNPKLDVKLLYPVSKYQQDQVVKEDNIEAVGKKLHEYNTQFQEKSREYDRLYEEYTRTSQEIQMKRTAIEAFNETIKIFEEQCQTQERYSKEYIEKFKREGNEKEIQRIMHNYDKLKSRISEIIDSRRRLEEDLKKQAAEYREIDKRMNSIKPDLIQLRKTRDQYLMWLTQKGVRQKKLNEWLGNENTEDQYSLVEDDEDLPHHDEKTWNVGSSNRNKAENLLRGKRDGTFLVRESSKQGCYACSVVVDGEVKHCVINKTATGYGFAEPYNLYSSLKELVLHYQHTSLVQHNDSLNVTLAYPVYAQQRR
T1 sequence (P42345 1362-2549 limits assumed): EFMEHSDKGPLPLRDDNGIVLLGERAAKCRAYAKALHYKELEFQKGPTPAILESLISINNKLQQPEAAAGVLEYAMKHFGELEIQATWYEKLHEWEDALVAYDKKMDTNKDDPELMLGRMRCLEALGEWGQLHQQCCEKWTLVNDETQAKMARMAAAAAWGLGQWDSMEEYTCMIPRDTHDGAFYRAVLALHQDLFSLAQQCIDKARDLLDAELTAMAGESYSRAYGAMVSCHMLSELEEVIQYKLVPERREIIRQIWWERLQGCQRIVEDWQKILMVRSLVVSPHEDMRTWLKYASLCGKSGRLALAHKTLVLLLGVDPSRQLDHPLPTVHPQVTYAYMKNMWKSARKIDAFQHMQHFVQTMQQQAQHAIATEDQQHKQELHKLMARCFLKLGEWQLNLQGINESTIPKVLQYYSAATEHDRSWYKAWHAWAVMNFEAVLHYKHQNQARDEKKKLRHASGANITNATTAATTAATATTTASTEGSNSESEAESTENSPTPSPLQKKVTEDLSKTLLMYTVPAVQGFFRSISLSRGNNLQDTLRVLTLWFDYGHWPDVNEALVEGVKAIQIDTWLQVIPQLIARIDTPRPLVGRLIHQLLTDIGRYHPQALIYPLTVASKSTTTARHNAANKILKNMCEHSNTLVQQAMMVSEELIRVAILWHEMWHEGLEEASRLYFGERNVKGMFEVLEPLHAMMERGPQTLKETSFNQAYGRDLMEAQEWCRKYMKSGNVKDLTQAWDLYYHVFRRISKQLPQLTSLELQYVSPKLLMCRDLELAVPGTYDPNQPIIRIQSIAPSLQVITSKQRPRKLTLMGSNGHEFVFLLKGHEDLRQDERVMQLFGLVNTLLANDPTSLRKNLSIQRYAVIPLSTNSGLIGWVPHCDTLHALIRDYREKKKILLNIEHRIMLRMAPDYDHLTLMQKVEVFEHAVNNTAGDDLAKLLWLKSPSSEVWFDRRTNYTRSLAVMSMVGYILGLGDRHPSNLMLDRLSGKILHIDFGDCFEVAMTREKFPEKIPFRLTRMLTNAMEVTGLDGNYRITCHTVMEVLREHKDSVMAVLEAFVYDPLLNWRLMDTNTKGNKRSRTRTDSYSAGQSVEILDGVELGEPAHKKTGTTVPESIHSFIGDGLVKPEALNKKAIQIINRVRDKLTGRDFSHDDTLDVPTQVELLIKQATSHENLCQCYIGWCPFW

SMILES: COc1ncc(-c2ccc3nccc(-c4ccnnc4)c3c2)cc1NS(=O)(=O)c1ccc(F)cc1F [Omipalisib, reference compound]
IC50 (MCF-7 cells; Table 1): > 4 µM | Ki (PI3Kγ): […] | inhibition at 0.001 µM (PI3Kα; Table 1): 89% | IC50 (HCT-116 cells [1]; Table 1, 72 h): 0.02 ± 0.01 µM

SMILES: COc1ncc(-c2ccc3c(c2)sc2c(NC4CC4)ncnc23)cc1NS(=O)(=O)c1ccc(F)cc1F [11d, N-(5-(4-(cyclopropylamino)benzo[4,5]thieno[3,2-d]pyrimidin-7-yl)-2-methoxypyridin-3-yl)-2,4-difluorobenzenesulfonamide]
IC50 (MCF-7 cells; Table 1): 0.51 ± 0.11 µM | inhibition at 0.001 µM (PI3Kα; Table 1): 40% | IC50 (HCT-116 cells [1]; Table 1, 72 h): 0.19 ± 0.12 µM

SMILES: COc1ncc(-c2cnc3ncnc(NCCN(C)C)c3c2)cc1NS(=O)(=O)c1ccc(F)cc1F [17d, N-(5-(4-((2-(dimethylamino)ethyl)amino)pyrido[2,3-d]pyrimidin-6-yl)-2-methoxypyridin-3-yl)-2,4-difluorobenzenesulfonamide]
IC50 (MCF-7 cells; Table 2): 0.73 ± 0.19 µM | inhibition at 0.001 µM (PI3Kα; Table 2): 31% | IC50 (HCT-116 cells [1]; Table 2, 72 h): 0.52 ± 0.23 µM

SMILES: COc1ncc(-c2cnc3ncnc(NCC4CC4)c3c2)cc1NS(=O)(=O)c1ccc(F)cc1F [17l, N-(5-(4-((cyclopropylmethyl)amino)pyrido[2,3-d]pyrimidin-6-yl)-2-methoxypyridin-3-yl)-2,4-difluorobenzenesulfonamide]
IC50 (MCF-7 cells; Table 2): 0.63 ± 0.12 µM | inhibition at 0.001 µM (PI3Kα; Table 2): 25% | IC50 (HCT-116 cells [1]; Table 2, 72 h): 0.47 ± 0.17 µM

SMILES: COc1ncc(-c2ccc3c(c2)sc2c(NCCCN4CCOCC4)ncnc23)cc1NS(=O)(=O)c1ccc(F)cc1F [11j, N-(2-methoxy-5-(4-((3-morpholinopropyl)amino)benzo[4,5]thieno[3,2-d]pyrimidin-7-yl)pyridin-3-yl)-2,4-difluorobenzenesulfonamide]
IC50 (MCF-7 cells; Table 1): > 1 µM | inhibition at 0.001 µM (PI3Kα; Table 1): 10% | IC50 (HCT-116 cells [1]; Table 1, 72 h): > 1 µM

SMILES: COc1ncc(-c2cnc3ncnc(NC(C)C)c3c2)cc1NS(=O)(=O)c1ccc(F)cc1F [17a, 2,4-difluoro-N-(5-(4-(isopropylamino)pyrido[2,3-d]pyrimidin-6-yl)-2-methoxypyridin-3-yl)benzenesulfonamide]
IC50 (MCF-7 cells; Table 2): 0.85 ± 0.3 µM | inhibition at 0.001 µM (PI3Kα; Table 2): 39% | IC50 (HCT-116 cells [1]; Table 2, 72 h): 0.59 ± 0.15 µM

SMILES: COc1ncc(-c2cnc3ncnc(N4CCC(C)CC4)c3c2)cc1NS(=O)(=O)c1ccc(F)cc1F [17f, N-(2-methoxy-5-(4-(4-methylpiperidin-1-yl)pyrido[2,3-d]pyrimidin-6-yl)pyridin-3-yl)-2,4-difluorobenzenesulfonamide]
IC50 (MCF-7 cells; Table 2): 0.86 ± 0.3 µM | inhibition at 0.001 µM (PI3Kα; Table 2): 11% | IC50 (HCT-116 cells [1]; Table 2, 72 h): 0.51 ± 0.25 µM

SMILES: COc1ncc(-c2ccc3c(c2)sc2c(NCCN)ncnc23)cc1NS(=O)(=O)c1ccc(F)cc1F [11f, N-(5-(4-((2-aminoethyl)amino)benzo[4,5]thieno[3,2-d]pyrimidin-7-yl)-2-methoxypyridin-3-yl)-2,4-difluorobenzenesulfonamide]
IC50 (MCF-7 cells; Table 1): 0.69 ± 0.25 µM | inhibition at 0.001 µM (PI3Kα; Table 1): 10% | IC50 (HCT-116 cells [1]; Table 1, 72 h): 0.77 ± 0.21 µM

Now from value to compound, other results behind:

IC50 (MCF-7 cells; Table 1): 1.76 ± 0.44 µM | IC50 (mTOR): 110 nM | IC50 (HCT-116 cells [1]; Table 1, 72 h): 0.19 ± 0.05 µM
SMILES: CCOC(=O)c1cnc2ccc(-c3cncc(NS(=O)(=O)c4ccccc4)c3)cn12 [HS-173, reference compound]

IC50 (MCF-7 cells; Table 3): 0.13 ± 0.03 µM | inhibition at 0.001 µM (PI3Kα; Table 3): 82% | IC50 (PI3Kα): 0.22 nM | IC50 (mTOR): 23 nM | IC50 (HCT-116 cells [1]; Table 3, 72 h): 0.02 ± 0.01 µM
SMILES: COc1ncc(-c2ccc3nccc(-c4ncc(C(=O)NC(C)C)o4)c3c2)cc1NS(=O)(=O)c1ccc(F)cc1F [22c, 2-(6-(5-((2,4-difluorophenyl)sulfonamido)-6-methoxypyridin-3-yl)quinolin-4-yl)-N-isopropyloxazole-5-carboxamide]
apoptosis and necrosis (Hoechst33342/PI staining) (HCT-116 cells [2]): could significantly affect apoptosis and necrosis of HCT-116 cells | cell cycle arrest (HCT-116 cells [3]): inhibited the cell cycle in G0/G1 phase | phosphorylation of AKT (Western blot) [4]: could block the phosphorylation process of AKT at low concentrations | Q1 of Annexin V-FITC/PI plot (HCT-116 cells [5]; 0.25 μM): 1.95 | Q2 of Annexin V-FITC/PI plot (HCT-116 cells [5]; 0.25 μM): 14.1 | Q3 of Annexin V-FITC/PI plot (HCT-116 cells [5]; 0.25 μM): 0.080 | Q4 of Annexin V-FITC/PI plot (HCT-116 cells [5]; 0.25 μM): 83.9 | Q1 of Annexin V-FITC/PI plot (HCT-116 cells [5]; 1 μM): 3.13 | Q2 of Annexin V-FITC/PI plot (HCT-116 cells [5]; 1 μM): 38.0 | Q3 of Annexin V-FITC/PI plot (HCT-116 cells [5]; 1 μM): 0.14 | Q4 of Annexin V-FITC/PI plot (HCT-116 cells [5]; 1 μM): 58.7 | Q1 of Annexin V-FITC/PI plot (HCT-116 cells [5]; 4 μM): 2.69 | Q2 of Annexin V-FITC/PI plot (HCT-116 cells [5]; 4 μM): 58.3 | Q3 of Annexin V-FITC/PI plot (HCT-116 cells [5]; 4 μM): 0.17 | Q4 of Annexin V-FITC/PI plot (HCT-116 cells [5]; 4 μM): 38.9 | apoptosis (flow cytometry), in words (HCT-116 cells [5]; dose-dependent): induce apoptosis

IC50 (MCF-7 cells; Table 3): > 1 µM | inhibition at 0.001 µM (PI3Kα; Table 3): 20% | IC50 (HCT-116 cells [1]; Table 3, 72 h): > 1 µM
SMILES: CCOC(=O)c1cnc(-c2ccnc3ccc(-c4cnc(OC)c(NS(=O)(=O)c5ccc(F)cc5F)c4)cc23)o1 [22a, Ethyl-2-(6-(5-((2,4-difluorophenyl)sulfonamido)-6-methoxypyridin-3-yl)quinolin-4-yl)oxazole-5-carboxylate]

IC50 (MCF-7 cells; Table 3): 0.2 ± 0.09 µM | inhibition at 0.001 µM (PI3Kα; Table 3): 69% | IC50 (HCT-116 cells [1]; Table 3, 72 h): 0.13 ± 0.05 µM
SMILES: COCCNC(=O)c1cnc(-c2ccnc3ccc(-c4cnc(OC)c(NS(=O)(=O)c5ccc(F)cc5F)c4)cc23)o1 [22e, 2-(6-(5-((2,4-difluorophenyl)sulfonamido)-6-methoxypyridin-3-yl)quinolin-4-yl)-N-(2-methoxyethyl)oxazole-5-carboxamide]

IC50 (MCF-7 cells; Table 3): > 1 µM | inhibition at 0.001 µM (PI3Kα; Table 3): 18% | IC50 (HCT-116 cells [1]; Table 3, 72 h): > 1 µM
SMILES: COc1ncc(-c2ccc3nccc(-c4ncc(C(=O)NC5CCCCC5)o4)c3c2)cc1NS(=O)(=O)c1ccc(F)cc1F [22j, N-cyclohexyl-2-(6-(5-((2,4-difluorophenyl)sulfonamido)-6-methoxypyridin-3-yl)quinolin-4-yl)oxazole-5-carboxamide]

IC50 (MCF-7 cells; Table 3): 0.46 ± 0.11 µM | inhibition at 0.001 µM (PI3Kα; Table 3): 82% | IC50 (PI3Kα): 0.22 nM | IC50 (HCT-116 cells [1]; Table 3, 72 h): 0.1 ± 0.06 µM
SMILES: COc1ncc(-c2ccc3nccc(-c4ncc(C(=O)NC5CC5)o4)c3c2)cc1NS(=O)(=O)c1ccc(F)cc1F [22d, N-cyclopropyl-2-(6-(5-((2,4-difluorophenyl)sulfonamido)-6-methoxypyridin-3-yl)quinolin-4-yl)oxazole-5-carboxamide]

— PMC10054477, “Design, Synthesis, and Biological Evaluation of Sulfonamide Methoxypyridine Derivatives as Novel PI3K/mTOR Dual Inhibitors” (Pharmaceuticals, 2023)
